Measured values taken from patent publication US8802597B2, “Herbicidal pyrimidines” (E I du Pont de Nemours and Company, priority 2003, dated 2014).

Experiments:
Assay type in all cases: in vivo
[1] = test system: common sowthistle (Sonchus oleraceous); experiment: Test G pre/postemergence
In short: (§1)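 Greenhouse pre/postemergence screen with surfactant-containing solvent formulation; postemergence plants were 1- to 4-leaf stage. Percent control (0–100) was judged by eye against controls after 12–21 days.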

[2] = test system: common purslane (Portulaca oleracea); experiment: Test G pre/postemergence
In short: as §1

[3] = test system: spanishneedles (Bidens bipinnata); experiment: Test G pre/postemergence
In short: as §1

[4] = test system: kochia (Kochia scoparia); experiment: Test G pre/postemergence
In short: as §1

[5] = test system: purple nutsedge (Cyperus rotundus); experiment: Test G pre/postemergence
In short: as §1

[6] = test system: wild mustard (Sinapis arvensis); experiment: Test D pre/postemergence; details: scale 0 to 100 (100 = complete control)
In short: (§2)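 Formulation: non-phytotoxic solvent mix + surfactant; applied pre-emergence to seeds and post-emergence to 1–4 leaf plants (2–18 cm). Growth chamber 15–25 d; visual comparison with controls, 0 = no effect to 100 = complete control.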

[7] = test system: Russian thistle (Salsola kali); experiment: Test D pre/postemergence; details: scale 0 to 100 (100 = complete control)
In short: as §2

[8] = test system: lambsquarters (Chenopodium album); experiment: Test D pre/postemergence; details: scale 0 to 100 (100 = complete control)
In short: as §2

[9] = test system: catchweed bedstraw (galium; Galium aparine); experiment: Test D pre/postemergence; details: scale 0 to 100 (100 = complete control)
In short: as §2

[10] = test system: wheat (Triticum aestivum); experiment: Test D pre/postemergence; details: scale 0 to 100 (100 = complete control)
In short: as §2

[11] = test system: wild buckwheat (Polygonum convolvulus); experiment: Test D pre/postemergence; details: scale 0 to 100 (100 = complete control)
In short: as §2

[12] = test system: kochia (Kochia scoparia); experiment: Test D pre/postemergence; details: scale 0 to 100 (100 = complete control)
In short: as §2

[13] = Postemergence, 250 g ai/ha, scale 0 to 100
[14] = Postemergence, 500 g ai/ha, scale 0 to 100
[15] = Postemergence, 62 g ai/ha, scale 0 to 100
[16] = Postemergence, 125 g ai/ha, scale 0 to 100
[17] = Postemergence, 375 g ai/ha, scale 0 to 100
[18] = Preemergence, 62 g ai/ha, scale 0-100
[19] = Preemergence, 125 g ai/ha, scale 0-100
[20] = Preemergence, 250 g ai/ha, scale 0-100
[21] = Preemergence, 500 g ai/ha, scale 0-100
[22] = Preemergence, 500 g ai/ha, scale 0 to 100

CCOC(=O)c1nc(C2CC2)nc(N)c1Br [Compound 1, ethyl 6-amino-5-bromo-2-cyclopropyl-4-pyrimidinecarboxylate]
Plant response rating, Sowthistle [1, 13]: 95 | Plant response rating, Sowthistle [1, 14]: 100 | Plant response rating, Sowthistle [1, 15]: 95 | Plant response rating, Sowthistle [1, 16]: 95 | Plant response rating, Sowthistle [1, 17]: 95 | Plant response rating, Sowthistle [1, 18]: 95 | Plant response rating, Sowthistle [1, 19]: 100 | Plant response rating, Sowthistle [1, 20]: 100 | Plant response rating, Sowthistle [1, 21]: 100 | Plant response rating, Sowthistle [1, 22]: 100 | Plant response rating, Purslane [2, 13]: 100 | Plant response rating, Purslane [2, 14]: 100 | Plant response rating, Purslane [2, 15]: 80 | Plant response rating, Purslane [2, 16]: 100 | Plant response rating, Purslane [2, 17]: 100 | Plant response rating, Purslane [2, 18]: 10 | Plant response rating, Purslane [2, 19]: 60 | Plant response rating, Purslane [2, 20]: 95 | Plant response rating, Purslane [2, 21]: 100 | Plant response rating, Purslane [2, 22]: 100 | Plant response rating, Spanishneedles [3, 13]: 95 | Plant response rating, Spanishneedles [3, 14]: 95 | Plant response rating, Spanishneedles [3, 15]: 80 | Plant response rating, Spanishneedles [3, 16]: 95 | Plant response rating, Spanishneedles [3, 17]: 95 | Plant response rating, Spanishneedles [3, 18]: 100 | Plant response rating, Spanishneedles [3, 19]: 100 | Plant response rating, Spanishneedles [3, 20]: 100 | Plant response rating, Spanishneedles [3, 21]: 100 | Plant response rating, Spanishneedles [3, 22]: 100 | Plant response rating, Kochia [4, 17]: 95 | Plant response rating, Kochia [4, 18]: 100 | Plant response rating, Kochia [4, 19]: 100 | Plant response rating, Kochia [4, 20]: 100 | Plant response rating, Kochia [4, 21]: 100 | Plant response rating, Kochia [4, 22]: 100 | Plant response rating, Nutsedge, Purple [5, 13]: 20 | Plant response rating, Nutsedge, Purple [5, 14]: 30 | Plant response rating, Nutsedge, Purple [5, 16]: 10 | Plant response rating, Nutsedge, Purple [5, 17]: 30 | Plant response rating, Nutsedge, Purple [5, 18]: 10 | Plant response rating, Nutsedge, Purple [5, 19]: 100 | Plant response rating, Nutsedge, Purple [5, 20]: 100 | Plant response rating, Nutsedge, Purple [5, 21]: 100 | Plant response rating, Nutsedge, Purple [5, 22]: 100 | Plant response rating, Mustard, Wild ([6]; Postemergence, 16 g ai/ha): 60 | Plant response rating, Mustard, Wild ([6]; Postemergence, 31 g ai/ha): 70 | Plant response rating, Mustard, Wild ([6]; Postemergence, 62 g ai/ha): 70 | Plant response rating, Mustard, Wild ([6]; Postemergence, 125 g ai/ha): 75 | Plant response rating, Mustard, Wild ([6]; Preemergence, 16 g ai/ha): 50 | Plant response rating, Mustard, Wild ([6]; Preemergence, 31 g ai/ha): 65 | Plant response rating, Mustard, Wild ([6]; Preemergence, 62 g ai/ha): 70 | Plant response rating, Mustard, Wild ([6]; Preemergence, 125 g ai/ha): 90 | Plant response rating, Russian Thistle ([7]; Postemergence, 16 g ai/ha): 45 | Plant response rating, Russian Thistle ([7]; Postemergence, 31 g ai/ha): 65 | Plant response rating, Russian Thistle ([7]; Postemergence, 62 g ai/ha): 85 | Plant response rating, Russian Thistle ([7]; Postemergence, 125 g ai/ha): 100 | Plant response rating, Russian Thistle ([7]; Preemergence, 16 g ai/ha): 100 | Plant response rating, Russian Thistle ([7]; Preemergence, 31 g ai/ha): 100 | Plant response rating, Russian Thistle ([7]; Preemergence, 62 g ai/ha): 100 | Plant response rating, Russian Thistle ([7]; Preemergence, 125 g ai/ha): 100 | Plant response rating, Lambsquarters ([8]; Postemergence, 16 g ai/ha): 95 | Plant response rating, Lambsquarters ([8]; Postemergence, 31 g ai/ha): 95 | Plant response rating, Lambsquarters ([8]; Postemergence, 62 g ai/ha): 100 | Plant response rating, Lambsquarters ([8]; Postemergence, 125 g ai/ha): 100 | Plant response rating, Lambsquarters ([8]; Preemergence, 16 g ai/ha): 65 | Plant response rating, Lambsquarters ([8]; Preemergence, 31 g ai/ha): 75 | Plant response rating, Lambsquarters ([8]; Preemergence, 62 g ai/ha): 85 | Plant response rating, Lambsquarters ([8]; Preemergence, 125 g ai/ha): 100 | Plant response rating, Galium ([9]; Postemergence, 16 g ai/ha): 95 | Plant response rating, Galium ([9]; Postemergence, 31 g ai/ha): 100 | Plant response rating, Galium ([9]; Postemergence, 62 g ai/ha): 100 | Plant response rating, Galium ([9]; Postemergence, 125 g ai/ha): 100 | Plant response rating, Galium ([9]; Preemergence, 16 g ai/ha): 80 | Plant response rating, Galium ([9]; Preemergence, 31 g ai/ha): 80 | Plant response rating, Galium ([9]; Preemergence, 62 g ai/ha): 100 | Plant response rating, Galium ([9]; Preemergence, 125 g ai/ha): 100 | Plant response rating, Wheat ([10]; Postemergence, 16 g ai/ha): 40 | Plant response rating, Wheat ([10]; Postemergence, 31 g ai/ha): 80 | Plant response rating, Wheat ([10]; Postemergence, 62 g ai/ha): 90 | Plant response rating, Wheat ([10]; Postemergence, 125 g ai/ha): 100 | Plant response rating, Wheat ([10]; Preemergence, 16 g ai/ha): 35 | Plant response rating, Wheat ([10]; Preemergence, 31 g ai/ha): 70 | Plant response rating, Wheat ([10]; Preemergence, 62 g ai/ha): 70 | Plant response rating, Wheat ([10]; Preemergence, 125 g ai/ha): 70 | Plant response rating, Buckwheat, Wild ([11]; Postemergence, 16 g ai/ha): 50 | Plant response rating, Buckwheat, Wild ([11]; Postemergence, 31 g ai/ha): 80 | Plant response rating, Buckwheat, Wild ([11]; Postemergence, 62 g ai/ha): 80 | Plant response rating, Buckwheat, Wild ([11]; Postemergence, 125 g ai/ha): 80 | Plant response rating, Buckwheat, Wild ([11]; Preemergence, 16 g ai/ha): 45 | Plant response rating, Buckwheat, Wild ([11]; Preemergence, 31 g ai/ha): 60 | Plant response rating, Buckwheat, Wild ([11]; Preemergence, 62 g ai/ha): 70 | Plant response rating, Buckwheat, Wild ([11]; Preemergence, 125 g ai/ha): 75 | Plant response rating, Kochia ([12]; Postemergence, 16 g ai/ha): 85 | Plant response rating, Kochia ([12]; Postemergence, 31 g ai/ha): 100 | Plant response rating, Kochia ([12]; Postemergence, 62 g ai/ha): 100 | Plant response rating, Kochia ([12]; Postemergence, 125 g ai/ha): 100 | Plant response rating, Kochia ([12]; Preemergence, 16 g ai/ha): 65 | Plant response rating, Kochia ([12]; Preemergence, 31 g ai/ha): 75 | Plant response rating, Kochia ([12]; Preemergence, 62 g ai/ha): 100 | Plant response rating, Kochia ([12]; Preemergence, 125 g ai/ha): 100
